Data: US8212016B2, “NPC1L1 orthologues” (Schering Corporation, priority 2006, dated 2012)
Where two headings read alike, the source gives them in different places.

Tests used:
human NPC1L1 [1] = target: T1, human NPC1L1 (Homo sapiens, UniProt Q9UHC9, T1073A); conditions: human NPC1L1, Garcia-Calvo et al. 2005; read-out: Kd, previously reported; cited from earlier work
T1 construct: expressed in transfected cells
T1 sequence (Q9UHC9 22-1332 isoform Q9UHC9-2 T1046A): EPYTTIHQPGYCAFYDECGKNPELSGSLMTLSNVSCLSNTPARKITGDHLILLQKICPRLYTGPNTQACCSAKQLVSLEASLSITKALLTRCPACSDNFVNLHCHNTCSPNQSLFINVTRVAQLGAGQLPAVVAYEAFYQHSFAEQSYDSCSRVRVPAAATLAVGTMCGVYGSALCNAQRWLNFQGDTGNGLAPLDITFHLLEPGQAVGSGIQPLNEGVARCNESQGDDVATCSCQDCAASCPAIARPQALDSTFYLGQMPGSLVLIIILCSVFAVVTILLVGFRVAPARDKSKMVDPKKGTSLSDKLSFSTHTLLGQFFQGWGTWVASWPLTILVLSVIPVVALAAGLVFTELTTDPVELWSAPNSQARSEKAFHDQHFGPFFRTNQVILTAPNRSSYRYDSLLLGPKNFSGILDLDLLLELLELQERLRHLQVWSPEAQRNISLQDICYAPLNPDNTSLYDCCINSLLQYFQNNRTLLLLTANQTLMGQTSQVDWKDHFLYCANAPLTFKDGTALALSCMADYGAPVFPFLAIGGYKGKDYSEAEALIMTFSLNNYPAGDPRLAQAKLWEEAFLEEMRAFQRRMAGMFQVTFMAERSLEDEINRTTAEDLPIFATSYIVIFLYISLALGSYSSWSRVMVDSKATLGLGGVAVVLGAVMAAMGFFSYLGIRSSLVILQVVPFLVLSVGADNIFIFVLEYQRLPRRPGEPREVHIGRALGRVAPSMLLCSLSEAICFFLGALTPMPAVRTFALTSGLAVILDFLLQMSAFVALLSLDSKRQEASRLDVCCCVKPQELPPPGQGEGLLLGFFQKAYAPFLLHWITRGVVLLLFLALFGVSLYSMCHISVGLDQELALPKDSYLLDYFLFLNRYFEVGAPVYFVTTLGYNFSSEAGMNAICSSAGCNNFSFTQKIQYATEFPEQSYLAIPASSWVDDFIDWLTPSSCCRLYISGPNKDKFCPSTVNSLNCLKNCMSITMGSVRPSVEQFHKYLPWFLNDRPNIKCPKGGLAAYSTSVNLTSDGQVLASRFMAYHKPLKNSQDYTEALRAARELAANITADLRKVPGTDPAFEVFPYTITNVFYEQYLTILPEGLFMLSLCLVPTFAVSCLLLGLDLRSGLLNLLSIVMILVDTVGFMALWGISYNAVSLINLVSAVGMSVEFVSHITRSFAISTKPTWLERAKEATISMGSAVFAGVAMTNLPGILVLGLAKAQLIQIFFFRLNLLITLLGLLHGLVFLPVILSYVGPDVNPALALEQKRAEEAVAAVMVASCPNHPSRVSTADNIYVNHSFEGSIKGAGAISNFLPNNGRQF

monkey NPC1L1 = monkey NPC1L1 (Macaca mulatta, UniProt A0MJA5); assay: Radioligand binding of [3H]-glucuronidated ezetimibe (compound 4) to cell membranes; set-up: species or system rhesus monkey
Protocol: (§1) Cell Culture and Membrane Preparation. […] Cells were maintained in DMEM supplemented with 10% FBS, 100 U/ml pen/strep, and 500 μg/ml geneticin at 37° C., 5% CO2. All cell culture reagents were obtained from Invitrogen Life Technologies, (Carlsbad, Calif.). Cell membranes were prepared by lysing cells in 5 mM HEPES with protease inhibitors (Complete™ Protease Inhibitor Cocktail Tablets; Roche Diagnostics Corp., Indianapolis Ind.) for 15 min at 4° C. A membrane pellet was obtained by centrifuging the cell lysates at 12,000×g for 25 min. […] Radioligand. […] Natl. Acad. Sci. […] Reactions were performed in binding buffer (5 mM HEPES, 5.5 mM glucose, 117 mM NaCl and 5.4 mM KCl, pH 7.4). Cell membranes (50 μg in 20 μl) were added to each well. […] Binding reactions were incubated for 2 hours at 37° C. Samples were transferred to Unifilter-96 GF/C plates (Perkin Elmer, Wellesley Mass.) and filtered using a Brandel harvester (Gaithersburg Md.). […] Liquid scintillant (50 μl; Microscint-20, Perkin Elmer, Wellesley Mass.) was added and the bound radioactivity was measured using a microplate scintillation counter.

human NPC1L1 [2] = target: T1, human NPC1L1; assay: as above
Protocol: as §1

human NPC1L1 [3] = target: T1, human NPC1L1; assay: Fluorescence NPC1L1 binding assay, HEK-293 cells, BODIPY-labeled compound 1; conditions: Human NPC1L1, competition with compound 1; read-out: Ki
Protocol: (§2) Cell Culture and Membrane Preparation. Each plasmid pCR3.1 harboring NPC1L1 was prepared using standard molecular biology protocols. Stable cell lines expressing human, rhesus monkey, mouse, rat, hamster, canine or rabbit NPC1L1 were generated using Lipofectamine 2000 transfection reagent in HEK-293 cells according to the manufacturer's protocol. Cells were maintained in DMEM supplemented with 10% FBS, 100 U/ml pen/strep, and 500 μg/ml geneticin at 37° C., 5% CO2. All cell culture reagents were obtained from Invitrogen Life Technologies, (Carlsbad, Calif.). Cell membranes were prepared by lysing cells in 5 mM HEPES with protease inhibitors (Complete™ Protease Inhibitor Cocktail Tablets; Roche Diagnostics Corp., Indianapolis Ind.) for 15 min at 4° C. A membrane pellet was obtained by centrifuging the cell lysates at 12,000×g for 25 min. The membranes were resuspended in 5 mM HEPES with protease inhibitors and triturated with a 21G needle.
(§3) Fluorescence. Cells were plated into 384-well black/clear plates (BD Biosciences, Bedford Mass.) for binding experiments the following day. The media was aspirated. […] Media (20 μl) containing the indicated concentration of compound was then added to the wells. […] The binding reaction was allowed to proceed for 4 hours at 37° C. Subsequently the media was aspirated and the cells washed once with PBS.

rabbit NPC1L1 = rabbit NPC1L1 (Oryctolagus cuniculus, UniProt A0MJA7); assay: as above
Protocol: as §2, §3

rat NPC1L1 = target: T2, rat NPC1L1 (Rattus norvegicus, UniProt Q6T3U3, A349V/E317P/G318E/K324N/L297S); assay: as above; conditions: Rat NPC1L1, competition with compound 1; read-out: Ki
T2 construct: expressed in transfected cells
Protocol: as §2, §3

hamster NPC1L1 = hamster NPC1L1 (Mesocricetus auratus, UniProt A0MJA8); assay: as above
Protocol: as §2, §3

canine NPC1L1 = canine NPC1L1 (Canis lupus familiaris, UniProt A0MJA4); assay: as above
Protocol: as §2, §3

In the case of `O=C(O)[C@H]1O[C@@H](Oc2ccc([C@@H]3[C@@H](CC[C@H](O)c4ccc(F)cc4)C(=O)N3c3ccc(F)cc3)cc2)[C@H](O)[C@@H](O)[C@@H]1O` [compound 4, glucuronidated ezetimibe], the Kd (human NPC1L1 [1]) is given as 220 nM, the Kd (monkey NPC1L1) is given as 102 nM and the Kd (human NPC1L1 [2]) is given as 206 nM. It also gave a Ki (human NPC1L1 [3]) of 660 nM, a Ki (rabbit NPC1L1; Rabbit NPC1L1, competition with compound 1, read-out: Ki) of 830 nM and a Ki (rabbit NPC1L1; Table 3, Rabbit, read-out: Ki Rabbit NPC1L1) of 830 nM. For the same molecule, the “difference in affinity versus ezetimibe (compound 3)” value (rabbit NPC1L1; rabbit NPC1L1) was “less than 3 fold”, the Ki (rat NPC1L1) was 352 nM and the Ki (hamster NPC1L1; Hamster NPC1L1, competition with compound 1, read-out: Ki) was 370 nM. For the same molecule, the Ki (hamster NPC1L1; Table 3, Hamster, read-out: Ki Hamster NPC1L1) was 371 nM, the Ki (canine NPC1L1; Canine NPC1L1, competition with compound 1, read-out: Ki) was 192 nM and the Ki (canine NPC1L1; Table 3, Dog, read-out: Ki Dog NPC1L1) was 190 nM.
